Test results taken from patent publication US7402574B2, “Antisense composition and method for treating cancer” (AVI BioPharma, Inc., priority 2004, dated 2008).

Experiments:
[1] = system: HCT-116; experiment: HCT-116 cells treated with sulindac sulfide, apoptosis and proliferation; type: cell-based, human; conditions: 100 μM, 3 days
[2] = system: SNAIL; experiment: HCT-116 cells treated with sulindac sulfide, SNAIL by RT-PCR; type: cell-based, human; conditions: 100 μM, 3 days, p=0.007
Protocol: (§1) For chemopreventive studies, we treated the human CRC cell line HCT-116 with sulindac sulfide (100 μM) or vehicle for 3 days and analyzed SNAIL and E-Cadherin by RT-PCR. In order to evaluate frequency of SNAIL overexpression in human colon cancer, we immunohistochemically probed a tissue array using a poly clonal antibody. Finally, to determine whether SNAIL is implicated in E-cadherin donwregulation in CRC, we treated 10 week old male MIN mice with antisense PMO to SNAIL (250 μg/day for 5 weeks) and examined E-cadherin levels in the uninvolved intestine using Western blot analysis.

[3] = system: E-Cadherin; experiment: HCT-116 cells treated with sulindac sulfide, E-Cadherin by RT-PCR; type: cell-based, human; conditions: 100 μM, 3 days
Protocol: as §1

[4] = system: SNAIL; experiment: MIN mice, immunohistochemical analysis of intestinal segments for SNAIL downregulation; type: in vivo; conditions: daily i.p. 5 weeks, 200 μg/20 g mouse
Protocol: (§2) Sixteen MIN mice (9-10 week old) were randomized to daily i.p. injections for 5 weeks with either saline or anti-SNAIL phosphorodiamidate morpholino antisense oligomers (PMO; 200 μg/20 g mouse). Animals were given BrdU 2 h prior to sacrifice and intestinal tumors were scored under magnification by observers blinded to treatment group. Immunohistochemical analysis was performed on formalin fixed intestinal segments for proliferation (BrdU labeling), apoptosis (using activated caspase 3) and SNAIL downregulation. The samples were scored by a gastrointestinal pathologist.

[5] = system: mucosal proliferation (BrdU labeling); experiment: MIN mice, immunohistochemical analysis of intestinal segments for proliferation (BrdU labeling); type: in vivo; conditions: daily i.p. 5 weeks, 200 μg/20 g mouse, BrdU 2 h prior to sacrifice, control 8.92 ± 8.00, p < 0.05
Protocol: as §2

[6] = system: activated caspase 3; experiment: MIN mice, immunohistochemical analysis of intestinal segments for apoptosis (activated caspase 3); type: in vivo; conditions: daily i.p. 5 weeks, 200 μg/20 g mouse, immunohistochemistry, control 1.00 ± 0.74, p < 0.05
Protocol: as §2

[7] = system: APC^MIN mouse; experiment: MIN mice, anti-SNAIL PMO daily i.p. 5 weeks, intestinal tumors scored; type: in vivo; conditions: 200 μg/20 g mouse
Protocol: as §2

[8] = system: Apc^Min/+ (MIN) mouse; experiment: MIN mouse, antisense SNAIL PMO IP for four weeks, adenomatous polyp / tumor formation; type: in vivo; conditions: MIN mice, 4 weeks treatment, IP 250 μg per day, five days per week
Source text: The Apc^Min/+ (MIN) mouse is a model for colorectal cancer and was used by the inventors to study the effects of antisense SNAIL PMO on the incidence and development of intestinal precancerous lesions (see e.g. Examples 2&3). The MIN mouse has a germ-line mutation in the adenomatous polyposis coli (Apc) gene which leads to familial adenomatous polyposis (FAP). Inactivation of Apc is found in 80% of sporadic human colorectal cancers and in humans with FAP (Kinzler and Vogelstein 1996). The MIN mouse model mimics the rapid development of adenomatous polyps that affect humans with germ-line inactivation of one Apc gene and therefore is a respected model for human colon carcinogenesis.
This observation clearly supports the role of SNAIL in the progression of colon carcinogenesis and as a potent target for anti-carcinogenic therapies.
Ten week-old MIN mice were injected intraperitonealy (IP) with SNAIL PMO (SEQ ID NO: 11) at a dose of 250 μg per day, five days per week for four weeks. Control mice were not injected with any antisense compound and were allowed to develop colon cancers.

[9] = system: E-cadherin; experiment: MIN mice treated with antisense PMO to SNAIL, E-cadherin in uninvolved intestine by Western blot; type: in vivo, mouse; conditions: 10 week old male MIN mice, 250 μg/day for 5 weeks, p=0.027
Protocol: as §1

[10] = system: MIN mice; experiment: Hair loss (alopecia) in PMO treated MIN mice; type: in vivo, mouse; conditions: antisense treated MIN mice, Example 3
Source text: As described above, SNAIL binds the E-box motifs of E-cadherin, and therefore inhibits E-cadherin expression. E cadherin is required for proper hair follicle cycling (Young, Boussadia et al. 2003). E-cadherin binds with β-catenin altering its location within the cell as well as reducing its availability. Decreasing the level of SNAIL leads to increased E-cadherin which then limits the availability of β-catenin. The decrease in β-catenin leads to an increase in genes in the NF-kappa beta pathway, including Fas and TRAF1. […] Antisense SNAIL PMO administered systemically (e.g. intravenous injection as in Example 3) could cause alopecia through Fas-mediated apoptosis of hair follicle cells or because E cadherin levels have increased sufficiently to cause abnormal hair follicle cycling.
as §2

Row | Compound | apoptosis [1] | proliferation [1] | SNAIL expression (% of vehicle) [2] | E-cadherin expression [3] | SNAIL (Arbit. Units) ([4]; immunohistochemistry, control 2.58 ± 0.67, p < 0.05) | suppression of SNAIL protein expression ([4]; versus saline control) [%] | BrdU Positive (% Total) [5] [% Total] | Cleaved Caspase-3 (Arbit. Units) [6] [Arbit. Units] | Tumor incidence (%) ([7]; control 25.06 ± 4.10, p < 0.05) | anti-tumorigenic effect (decrease) ([7]; versus saline control) [%] | reduction in formation of adenomatous polyps, colon [8] [%] | reduction in formation of adenomatous polyps, proximal bowel [8] [%] | total number of tumors reduced [8] [%] | increase in intestinal E-cadherin protein [9] [%] | hair loss (alopecia) [10] | hair loss (alopecia) ([10]; listed as Antisense SNAIL PMO)
1 | CSc1ccc(/C=C2/C(C)=C(CC(=O)O)c3cc(F)ccc32)cc1 [sulindac sulfide] | induced apoptosis | inhibited proliferation | 39.2 % of vehicle | induction |  |  |  |  |  |  |  |  |  |  |  | 
2 | SNAIL PMO: phosphorodiamidate morpholino antisense oligomer GGAGCGCGGCATGTTGGCC, target ncts. 8-26 of GenBank M95604 (all phosphorodiamidate morpholino (PMO)) |  |  |  |  | 2.00 ± 0.58 | 23 | 3.43 ± 3.80 | 1.50 ± 0.65 | 19.57 ± 6.16 | 22 | 44.1 | 41.6 | 21.9 | 26 | pronounced hair loss (alopecia) | induce alopecia
